Data reported in ChEMBL document CHEMBL1155857, “Benzodiazepine ligands can act as allosteric modulators of the Type 1 cholecystokinin receptor” (Bioorg Med Chem Lett, 2008).

Molecular target: T1, Cholecystokinin receptor type A (Rattus norvegicus) (UniProt P30551)
T1 sequence (whole entry): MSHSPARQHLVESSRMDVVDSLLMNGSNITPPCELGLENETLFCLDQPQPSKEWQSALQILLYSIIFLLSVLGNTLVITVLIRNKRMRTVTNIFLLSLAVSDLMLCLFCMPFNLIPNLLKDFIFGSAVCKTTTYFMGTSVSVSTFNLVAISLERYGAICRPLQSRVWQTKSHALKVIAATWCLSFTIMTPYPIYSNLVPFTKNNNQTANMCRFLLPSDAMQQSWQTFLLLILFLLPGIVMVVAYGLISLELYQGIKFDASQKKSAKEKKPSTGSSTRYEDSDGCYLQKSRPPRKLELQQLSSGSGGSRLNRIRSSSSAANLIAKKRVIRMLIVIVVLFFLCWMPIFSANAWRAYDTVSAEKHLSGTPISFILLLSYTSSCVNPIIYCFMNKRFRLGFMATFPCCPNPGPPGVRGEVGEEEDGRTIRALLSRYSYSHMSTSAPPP
Test: Displacement of [125I]CCK from rat CCK1 receptor expressed in CHO cells
Format: cell-based

## CN1C(=O)[C@@H](NC(=O)c2cc3ccccc3[nH]2)N=C(c2ccccc2)c2ccccc21
  pKb: 8.35
